# Experiments:
# ISC-enriched organoids [1] = experiment: Secondary (validation) screen, 384-well 2.5-D, ENR+CD 6 days, n=8 wells, vs ENR+CD+DMSO control: ATP (CTG); assay type: cell-based, murine
# Protocol: (§1) Drugs were tested at a narrowed dose range around each treatment's identified optimal dose from the primary screen (4× below, 2× above and below).
# (§2) High-throughput screening.
# (§3) Secondary lysozyme secretion assay screen. Confirmatory secondary screening with primary hits was performed using the above 384-well plate method. The screen was conducted with 4-plate replicates with a base media of ENR+CD. Media was supplemented with compound at day 0 and day 3 (n=8 well replicates per dose) at four different doses: two-fold above, two-fold below, and four-fold below the optimal final dose for each respective treatment. Additionally, each plate carried a large number of ENR+DMSO or ENR+CD+DMSO (vehicle) control wells (n=100 for ATP, and n=25 for LYZ.NS and LYZ.S) for robust normalization. ATP, non-stimulated lysozyme activity and CCh-stimulated lysozyme activity was again measured and the collected data was again processed in a custom R-script, per primary screen with slight modification. Values were log10 transformed, and a plate-wise FC was calculated for each well based on the median value of ENR+CD+DMSO (vehicle) control wells to normalize plate to plate variability.
# ISC-enriched organoids [2] = experiment: Secondary (validation) screen, 384-well 2.5-D, ENR+CD 6 days, n=8 wells, vs ENR+CD+DMSO control: basal lysozyme secretion (LYZ.NS); assay type: cell-based, murine
# Protocol: as §1, §2, §3
# ISC-enriched organoids [3] = experiment: Secondary (validation) screen, 384-well 2.5-D, ENR+CD 6 days, n=8 wells, vs ENR+CD+DMSO control: carbachol-induced lysozyme secretion (LYZ.S); assay type: cell-based, murine
# Protocol: as §1, §2, §3
# ISC-enriched organoids [4] = experiment: Primary screen, 384-well 2.5-D organoid differentiation (ENR+CD, 6 days): basal lysozyme secretion (LYZ.NS); assay type: cell-based, murine; details: for Z.LYZ.NS (standard z score) / Dose.FC.LYZ.NS (log 2 fold change) / SSMD.LYZ.NS: primary screen; for Dose.FC.LYZ.NS (log 2 fold change): vs plate median; for SSMD.LYZ.NS: strictly standardized mean difference; for Dose.FC.LYZ.NS: ENR+CD, 6 days, FC vs plate median; for Z.LYZ.NS: standard z score of FC
# Description: as §2
# ISC-enriched organoids [5] = experiment: Primary screen, 384-well 2.5-D organoid differentiation (ENR+CD, 6 days): carbachol-induced lysozyme secretion (LYZ.S); assay type: cell-based, murine; details: for Dose.FC.LYZ.S (log 2 fold change) / Z.LYZ.S / SSMD.LYZ.S: primary screen; for Dose.FC.LYZ.S (log 2 fold change): vs plate median; for Z.LYZ.S: standard z score; for SSMD.LYZ.S: strictly standardized mean difference; for Dose.FC.LYZ.S: ENR+CD, 6 days, FC vs plate median
# Description: as §2
# ISC-enriched organoids [6] = experiment: Primary screen, 384-well 2.5-D organoid differentiation (ENR+CD, 6 days, Target Selective Inhibitor Library, vs whole-plate median): ATP (CellTiter-Glo 3D, CTG); details: for Dose.FC.CTG (log 2 fold change): vs plate median; for SSMD.CTG: strictly standardized mean difference; for Dose.FC.CTG: ENR+CD, 6 days, FC vs plate median
# [7] = 1st of the 4 dose lines of the treatment (dose not given)
# [8] = 2nd of the 4 dose lines of the treatment (dose not given)
# [9] = 3rd of the 4 dose lines of the treatment (dose not given)
# [10] = 4th of the 4 dose lines of the treatment (dose not given)
molecule,measurement,setting,value
"CCc1c(C(=O)C(N)=O)c2c(OCC(=O)O)cccc2n1Cc1ccccc1 [Varespladib (LY315920), Varespladib]",Z.CTG,ISC-enriched organoids [1]; Dose 0.02 uM,0.244
same,repSSMD.CTG,ISC-enriched organoids [1]; Dose 0.02 uM,0.187
same,Z.CTG,ISC-enriched organoids [1]; Dose 0.04 uM,1.019
same,repSSMD.CTG,ISC-enriched organoids [1]; Dose 0.04 uM,0.518
same,Z.CTG,ISC-enriched organoids [1]; dose 0.08 uM,1.862
same,repSSMD.CTG,ISC-enriched organoids [1]; dose 0.08 uM,1.114
same,Z.LYZ.NS,ISC-enriched organoids [2]; Dose 0.02 uM,−0.723
same,repSSMD.LYZ.NS,ISC-enriched organoids [2]; Dose 0.02 uM,−0.763
same,Z.LYZ.NS,ISC-enriched organoids [2]; Dose 0.04 uM,0.123
same,repSSMD.LYZ.NS,ISC-enriched organoids [2]; Dose 0.04 uM,0.213
same,Z.LYZ.NS,ISC-enriched organoids [2]; dose 0.08 uM,0.718
same,repSSMD.LYZ.NS,ISC-enriched organoids [2]; dose 0.08 uM,1.251
same,Z.LYZ.S,ISC-enriched organoids [3]; Dose 0.02 uM,−1.057
same,repSSMD.LYZ.S,ISC-enriched organoids [3]; Dose 0.02 uM,−1.652
same,Z.LYZ.S,ISC-enriched organoids [3]; Dose 0.04 uM,−0.339
same,repSSMD.LYZ.S,ISC-enriched organoids [3]; Dose 0.04 uM,−0.641
same,Z.LYZ.S,ISC-enriched organoids [3]; dose 0.08 uM,0.497
same,repSSMD.LYZ.S,ISC-enriched organoids [3]; dose 0.08 uM,0.838
S3I-201,Z.LYZ.NS (standard z score),ISC-enriched organoids [4]; Dose 0.08 uM,0.445
same,Dose.FC.LYZ.NS (log 2 fold change),ISC-enriched organoids [4]; Dose 0.08 uM,0.051
same,Z.LYZ.NS (standard z score),ISC-enriched organoids [4]; Dose 0.40 uM,0.527
same,Dose.FC.LYZ.NS (log 2 fold change),ISC-enriched organoids [4]; Dose 0.40 uM,0.061
same,Z.LYZ.NS (standard z score),ISC-enriched organoids [4]; Dose 2.00 uM,0.212
same,Dose.FC.LYZ.NS (log 2 fold change),ISC-enriched organoids [4]; Dose 2.00 uM,0.024
same,Z.LYZ.NS (standard z score),ISC-enriched organoids [4]; Dose 10.00 uM,−0.143
same,Dose.FC.LYZ.NS (log 2 fold change),ISC-enriched organoids [4]; Dose 10.00 uM,−0.016
same,Dose.FC.LYZ.S (log 2 fold change),ISC-enriched organoids [5]; Dose 0.08 uM,0.033
same,Dose.FC.LYZ.S (log 2 fold change),ISC-enriched organoids [5]; Dose 0.40 uM,0.157
same,Dose.FC.LYZ.S (log 2 fold change),ISC-enriched organoids [5]; Dose 2.00 uM,−0.004
same,Dose.FC.LYZ.S (log 2 fold change),ISC-enriched organoids [5]; Dose 10.00 uM,−0.052
same,Z.CTG (standard z score),"ISC-enriched organoids [6]; Dose 0.08 uM, primary screen",0.766
same,Dose.FC.CTG (log 2 fold change),"ISC-enriched organoids [6]; Dose 0.08 uM, primary screen",0.321
same,Z.CTG (standard z score),"ISC-enriched organoids [6]; Dose 0.40 uM, primary screen",0.382
same,Dose.FC.CTG (log 2 fold change),"ISC-enriched organoids [6]; Dose 0.40 uM, primary screen",0.160
same,Z.CTG (standard z score),"ISC-enriched organoids [6]; Dose 2.00 uM, primary screen",0.188
same,Dose.FC.CTG (log 2 fold change),"ISC-enriched organoids [6]; Dose 2.00 uM, primary screen",0.079
same,Z.CTG (standard z score),"ISC-enriched organoids [6]; Dose 10.00 uM, primary screen",−0.334
same,Dose.FC.CTG (log 2 fold change),"ISC-enriched organoids [6]; Dose 10.00 uM, primary screen",−0.140
N#Cc1ccc(C(c2ccc(C#N)cc2)n2cncn2)cc1 [Letrozole],SSMD.LYZ.NS,ISC-enriched organoids [4]; [7],0.554
same,SSMD.LYZ.NS,ISC-enriched organoids [4]; [8],1.104
same,SSMD.LYZ.NS,ISC-enriched organoids [4]; [9],0.063
same,SSMD.LYZ.NS,ISC-enriched organoids [4]; [10],−0.042
same,Z.LYZ.S,ISC-enriched organoids [5]; [7],0.258
same,Z.LYZ.S,ISC-enriched organoids [5]; [8],0.970
same,Z.LYZ.S,ISC-enriched organoids [5]; [9],0.038
same,Z.LYZ.S,ISC-enriched organoids [5]; [10],0.040
same,SSMD.LYZ.S,ISC-enriched organoids [5]; [7],0.212
same,SSMD.LYZ.S,ISC-enriched organoids [5]; [8],0.764
same,SSMD.LYZ.S,ISC-enriched organoids [5]; [9],0.041
same,SSMD.LYZ.S,ISC-enriched organoids [5]; [10],0.028
same,Z.CTG,"ISC-enriched organoids [6]; Dose 0.08 uM, primary screen, standard z score",−0.031
same,Z.CTG,"ISC-enriched organoids [6]; Dose 0.40 uM, primary screen, standard z score",0.241
same,Z.CTG,"ISC-enriched organoids [6]; Dose 2.00 uM, primary screen, standard z score",0.236
same,Z.CTG,"ISC-enriched organoids [6]; Dose 10.00 uM, primary screen, standard z score",0.408
same,SSMD.CTG,"ISC-enriched organoids [6]; primary screen, 1st of the 4 dose lines of the treatment (dose not given)",−0.043
same,SSMD.CTG,"ISC-enriched organoids [6]; primary screen, 2nd of the 4 dose lines of the treatment (dose not given)",0.336
same,SSMD.CTG,"ISC-enriched organoids [6]; primary screen, 3rd of the 4 dose lines of the treatment (dose not given)",0.288
same,SSMD.CTG,"ISC-enriched organoids [6]; primary screen, 4th of the 4 dose lines of the treatment (dose not given)",0.606
CO[C@H]1C[C@@H]2CC[C@@H](C)[C@@](O)(O2)C(=O)C(=O)N2CCCC[C@H]2C(=O)O[C@H]([C@H](C)C[C@@H]2CC[C@@H](OCCO)[C@H](OC)C2)CC(=O)[C@H](C)/C=C(\C)[C@@H](O)[C@@H](OC)C(=O)[C@H](C)C[C@H](C)/C=C/C=C/C=C/1C [Everolimus (RAD001)],Dose.FC.LYZ.NS,ISC-enriched organoids [4]; Dose 0.08 uM,0.068 log 2 fold change
same,Z.LYZ.NS,ISC-enriched organoids [4]; Dose 0.08 uM,0.590
same,Dose.FC.LYZ.NS,ISC-enriched organoids [4]; Dose 0.40 uM,0.110 log 2 fold change
same,Z.LYZ.NS,ISC-enriched organoids [4]; Dose 0.40 uM,0.956
same,Dose.FC.LYZ.NS,ISC-enriched organoids [4]; Dose 2.00 uM,−0.003 log 2 fold change
same,Z.LYZ.NS,ISC-enriched organoids [4]; Dose 2.00 uM,−0.030
same,Dose.FC.LYZ.NS,ISC-enriched organoids [4]; Dose 10.00 uM,−0.024 log 2 fold change
same,Z.LYZ.NS,ISC-enriched organoids [4]; Dose 10.00 uM,−0.210
same,Dose.FC.LYZ.S,ISC-enriched organoids [5]; Dose 0.08 uM,−0.012 log 2 fold change
same,Dose.FC.LYZ.S,ISC-enriched organoids [5]; Dose 0.40 uM,−0.007 log 2 fold change
same,Dose.FC.LYZ.S,ISC-enriched organoids [5]; Dose 2.00 uM,−0.039 log 2 fold change
same,Dose.FC.LYZ.S,ISC-enriched organoids [5]; Dose 10.00 uM,−0.096 log 2 fold change
same,Dose.FC.CTG,ISC-enriched organoids [6]; Dose 0.08 uM,0.392 log 2 fold change
same,Z.CTG,"ISC-enriched organoids [6]; Dose 0.08 uM, standard z score of FC",0.936
same,Dose.FC.CTG,ISC-enriched organoids [6]; Dose 0.40 uM,0.127 log 2 fold change
same,Z.CTG,"ISC-enriched organoids [6]; Dose 0.40 uM, standard z score of FC",0.304
same,Dose.FC.CTG,ISC-enriched organoids [6]; Dose 2.00 uM,0.132 log 2 fold change
same,Z.CTG,"ISC-enriched organoids [6]; Dose 2.00 uM, standard z score of FC",0.314
same,Dose.FC.CTG,ISC-enriched organoids [6]; Dose 10.00 uM,−0.111 log 2 fold change
same,Z.CTG,"ISC-enriched organoids [6]; Dose 10.00 uM, standard z score of FC",−0.266

# Reference: patent publication US20230398130A1, “METHODS AND COMPOSITIONS FOR DIFFERENTIATING STEM CELLS” (Massachusetts Institute of Technology, priority 2020, published 2023)
